Experimental data published in ChEMBL document CHEMBL1148540, “Tetrahydrobenzothiophene inhibitors of hepatitis C virus NS5B polymerase” (Bioorg Med Chem Lett, 2006).

Assays:
[1] = molecular target: T1, RNA-directed RNA polymerase (Hepacivirus hominis, UniProt O39930); experiment: Inhibitory activity against delta-21 C-terminally truncated HCV 1b (BB7 isolate) RNA dependent RNA polymerase; set-up: species or system Hepatitis C virus subtype 1b
[2] = Permeability across Caco-2 cell membrane; format: ADME, cell-based; conditions: human, read-out: permeability
[3] = molecular target: T1, RNA-directed RNA polymerase; experiment: Inhibitory activity against HCV 4a NS5B full length RNA dependent RNA polymerase; set-up: species or system Hepatitis C virus subtype 4a

T1 sequence (O39930 whole entry, the tested form may be a part): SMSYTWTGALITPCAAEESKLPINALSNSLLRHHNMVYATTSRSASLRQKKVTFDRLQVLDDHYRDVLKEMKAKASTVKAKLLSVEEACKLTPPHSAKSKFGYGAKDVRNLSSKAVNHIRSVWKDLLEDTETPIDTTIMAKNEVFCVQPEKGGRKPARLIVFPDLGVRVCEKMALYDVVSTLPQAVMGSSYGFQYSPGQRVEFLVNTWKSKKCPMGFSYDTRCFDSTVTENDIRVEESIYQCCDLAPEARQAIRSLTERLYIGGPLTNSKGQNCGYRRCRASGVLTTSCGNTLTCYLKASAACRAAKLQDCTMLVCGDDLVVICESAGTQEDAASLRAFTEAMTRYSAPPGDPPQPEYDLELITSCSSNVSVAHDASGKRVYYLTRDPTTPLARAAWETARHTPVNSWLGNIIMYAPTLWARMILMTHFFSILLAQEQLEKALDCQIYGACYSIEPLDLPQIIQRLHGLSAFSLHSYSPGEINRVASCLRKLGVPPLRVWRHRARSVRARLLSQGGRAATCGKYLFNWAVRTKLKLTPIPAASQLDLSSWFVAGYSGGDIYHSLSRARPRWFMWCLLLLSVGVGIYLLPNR

SMILES	IC50 [1] [nM]	Papp [2] [×10⁻⁶ cm/s]	IC50 [3] [nM]
CCOC(=O)c1c(NC(=O)NS(=O)(=O)c2ccccc2C(F)(F)F)sc2c1CCC(C)(C)C2	200	> 3	50
CCOC(=O)c1c(NC(=O)NS(=O)(=O)c2ccccc2OC(F)(F)F)sc2c1CCC(C)(C)C2	400	> 3	150
CCOC(=O)c1c(NC(=O)NS(=O)(=O)N2CCOCC2)sc2c1CCC(C)(C)C2	2500	–	300
CCOC(=O)c1c(NC(=O)NS(=O)(=O)c2ccc(C)cc2)sc2c1C(C)CCC2 (centres undefined)	–	–	2000
CCOC(=O)c1c(NC(=O)NS(=O)(=O)N2CCCCC2)sc2c1CCC(C)(C)C2	1000	–	200
CCOC(=O)c1c(NC(=O)NS(=O)(=O)c2ccnn2C)sc2c1CCC(C)(C)C2	260	> 3	50
CCOC(=O)c1c(NC(=O)NS(=O)(=O)N2CCN(C)CC2)sc2c1CCC(C)(C)C2	2000	–	400
CCOC(=O)c1c(NC(=O)NS(=O)(=O)N2CCCCCC2)sc2c1CCC(C)(C)C2	1100	–	500
CCOC(=O)c1c(NC(=O)NS(=O)(=O)c2ccccc2)sc2c1CCC(C)(C)C2	200	> 3	90
CCOC(=O)c1c(NC(=O)NS(=O)(=O)c2ccc(C)cc2)sc2c1CC(C)CC2 (centres undefined)	–	–	500
CCOC(=O)c1c(NC(=O)NS(=O)(=O)c2nccn2C)sc2c1CCC(C)(C)C2	150	> 3	80
CCOC(=O)c1c(NC(=O)NS(=O)(=O)c2ccc(C)cc2)sc2c1CCCC2	–	–	1000
CCOC(=O)c1c(NC(=O)NS(=O)(=O)N2CCCC2)sc2c1CCC(C)(C)C2	400	–	200
CCOC(=O)c1c(NC(=O)c2nccnc2C(=O)O)sc2c1CCCC2	–	–	4000
CCOC(=O)c1c(NC(=O)NS(=O)(=O)c2cccc(OC)c2)sc2c1CCCC2	–	–	1200
CCOC(=O)c1c(NC(=O)NS(=O)(=O)c2ccc([N+](=O)[O-])cc2)sc2c1CCCC2	–	–	2800
CCOC(=O)c1c(NC(=O)NS(C)(=O)=O)sc2c1CCCC2	–	–	3800

SMILES	IC50 [1] [nM]	Papp [2] [×10⁻⁶ cm/s]	IC50 [3] [nM]
CCOC(=O)c1c(NC(=O)NS(=O)(=O)c2cccc(C)c2)sc2c1CCCC2	–	–	900
CCOC(=O)c1c(NC(=O)NS(=O)(=O)c2ccc(C)cn2)sc2c1CCC(C)(C)C2	200	> 3	50
CCOC(=O)c1c(NC(=O)NS(=O)(=O)c2ccccc2)sc2c1CCCC2	–	–	700
CCOC(=O)c1c(NC(=O)NS(=O)(=O)N2CCc3ccccc3C2)sc2c1CCC(C)(C)C2	600	–	100
CCOC(=O)c1c(NC(=O)NS(=O)(=O)c2ccc(F)cc2)sc2c1CCC(C)(C)C2	500	> 3	60
CCOC(=O)c1c(NC(=O)NS(=O)(=O)N2CCc3ccccc32)sc2c1CCC(C)(C)C2	260	–	200
CCOC(=O)c1c(NC(=O)NS(=O)(=O)c2ccc(F)cc2)sc2c1CCCC2	–	–	1700
CCOC(=O)c1c(NC(=O)NS(=O)(=O)c2ccc(C)cc2)sc2c1CCC(C)(C)C2	400	> 3	90
CCOC(=O)c1c(NC(=O)NS(=O)(=O)c2cccc3ccccc23)sc2c1CCCC2	–	–	700
CCOC(=O)c1c(NC(=O)NS(=O)(=O)c2ccccc2C)sc2c1CCCC2	–	–	900
CCCCS(=O)(=O)NC(=O)Nc1sc2c(c1C(=O)OCC)CCCC2	–	–	4900
CCOC(=O)c1c(NC(=O)NS(=O)(=O)c2ccc(C)cc2)sc2c1CCC(C)C2 (centres undefined)	–	–	200
CCOC(=O)c1c(NC(=O)NS(=O)(=O)c2ncccn2)sc2c1CCC(C)(C)C2	300	> 3	50
CCOC(=O)c1c(NC(=O)NS(=O)(=O)c2ccc(C#N)cc2)sc2c1CCC(C)(C)C2	400	> 3	90
CCOC(=O)c1c(NC(=O)NS(=O)(=O)c2ccc(Cl)cc2)sc2c1CCCC2	–	–	1000
CCOC(=O)c1c(NC(=O)NS(=O)(=O)c2ccccn2)sc2c1CCC(C)(C)C2	150	> 3	40
CCOC(=O)c1c(NC(=O)NS(=O)(=O)N2CCN(C(C)=O)CC2)sc2c1CCC(C)(C)C2	600	–	300
